Test [1] is described as follows: In vitro effective concentration tested on HEK293 cells co-transfected with ferret Dopamine receptor D4 using FLIPR assay.
Test [2] can be described thus: In vitro effective concentration tested on HEK293 cells co-transfected with ferret Dopamine receptor D2 using FLIPR assay.

A word on the EC50: it is the concentration giving half of the maximal effect. In the case of `NCCc1ccc(O)c(O)c1`, the EC50 in test [1] came out at 2.7 nM.
On the same count and under the same terms, under `c1ccc(N2CCN(Cc3nc4ccccc4[nH]3)CC2)nc1` [2-((4-(pyridin-2-yl)piperazin-1-yl)methyl)-1H-benzo[d]imidazole] stands 23.2 nM.
Regarding `Fc1ccc2[nH]c(CN3CCN(c4ccccn4)CC3)cc2c1` [5-Fluoro-2-(4-pyridin-2-yl-piperazin-1-ylmethyl)-1H-indole], the EC50 in test [1] is 22 nM; in test [2], 527 nM.
`CN1CCc2cccc3c2[C@H]1Cc1ccc(O)c(O)c1-3` [APOKYN] registered an EC50 in test [1] of 1.5 nM. This counts as single-digit nanomolar.

The record behind these values is BindingDB's records for doi:10.1021/jm030505a (Abbott Laboratories, 2004).
